Reference: PubChem BioAssay AID1259407 (Chemical Carcinogenesis Research Information System (CCRIS), 2018)
Calls of active or inactive are those of the source. How the calls were made is not given here.

Test system: CCRIS mutagenicity, Ames/micronucleus/aberration tests
Assay: CCRIS mutagenicity studies
[1] = Test System: AMES SALMONELLA TYPHIMURIUM, Strain/Indicator: TA98, Metabolic Activation: NONE, Method: PREINCUBATION
[2] = Test System: AMES SALMONELLA TYPHIMURIUM, Strain/Indicator: TA100, Metabolic Activation: NONE, Method: PREINCUBATION
[3] = Test System: AMES SALMONELLA TYPHIMURIUM, Strain/Indicator: TA100, Metabolic Activation: NONE, Method: STANDARD PLATE

**Q.** Which mutagenic call (End Point: In vivo micronucleus, Test System: Bone marrow erythrocytes, Species: Mouse, Strain/Sex: Crl:CD1 (ICR)/Male and female, Route: Oral) does the source give for `N[C@@H](CC(=O)O)C(=O)O` here?
**A.** The mutagenic call was “inactive; negative”.

**Q.** And the mutagenic call (Test System: AMES SALMONELLA TYPHIMURIUM, Strain/Indicator: TA97, Metabolic Activation: NONE, Method: PREINCUBATION)?
**A.** Its mutagenic call is “inactive; negative”.

**Q.** And the mutagenic call (Test System: AMES SALMONELLA TYPHIMURIUM, Strain/Indicator: TA97, Metabolic Activation: RAT, LIVER, S-9, AROCLOR 1254, Method: PREINCUBATION)?
**A.** The mutagenic call was “inactive; negative”.

**Q.** What about the mutagenic call [1] of the same compound?
**A.** Its mutagenic call is “inactive; negative”.

**Q.** And the mutagenic call (Test System: AMES SALMONELLA TYPHIMURIUM, Strain/Indicator: TA98, Metabolic Activation: RAT LIVER S-9, PHENOBARBITAL AND BETA-NAPHTHOFLAVONE, Method: PREINCUBATION)?
**A.** The mutagenic call was “inactive; negative”.

**Q.** And the mutagenic call [2]?
**A.** Its mutagenic call is “inactive; negative”.

**Q.** What about the mutagenic call (Test System: AMES SALMONELLA TYPHIMURIUM, Strain/Indicator: TA100, Metabolic Activation: RAT LIVER S-9, PHENOBARBITAL AND BETA-NAPHTHOFLAVONE, Method: PREINCUBATION) of the same compound?
**A.** The mutagenic call was “inactive; negative”.

**Q.** What about the mutagenic call (Test System: AMES SALMONELLA TYPHIMURIUM, Strain/Indicator: TA102, Metabolic Activation: NONE, Method: PREINCUBATION) of the same compound?
**A.** Its mutagenic call is “inactive; negative”.

**Q.** What about the mutagenic call (Test System: AMES SALMONELLA TYPHIMURIUM, Strain/Indicator: TA102, Metabolic Activation: RAT, LIVER, S-9, AROCLOR 1254, Method: PREINCUBATION) of the same compound?
**A.** Its mutagenic call is “inactive; negative”.

**Q.** What about the mutagenic call (Test System: AMES SALMONELLA TYPHIMURIUM, Strain/Indicator: TA1535, Metabolic Activation: NONE, Method: PREINCUBATION) of the same compound?
**A.** The mutagenic call was “inactive; negative”.

**Q.** What about the mutagenic call (Test System: AMES SALMONELLA TYPHIMURIUM, Strain/Indicator: TA1535, Metabolic Activation: RAT LIVER S-9, PHENOBARBITAL AND BETA-NAPHTHOFLAVONE, Method: PREINCUBATION) of the same compound?
**A.** The mutagenic call was “inactive; negative”.

**Q.** And the mutagenic call (Test System: AMES SALMONELLA TYPHIMURIUM, Strain/Indicator: TA1537, Metabolic Activation: NONE, Method: PREINCUBATION)?
**A.** Its mutagenic call is “inactive; negative”.

**Q.** What about the mutagenic call (Test System: AMES SALMONELLA TYPHIMURIUM, Strain/Indicator: TA1537, Metabolic Activation: RAT LIVER S-9, PHENOBARBITAL AND BETA-NAPHTHOFLAVONE, Method: PREINCUBATION) of the same compound?
**A.** Its mutagenic call is “inactive; negative”.

**Q.** And the mutagenic call (Test System: Ames Salmonella typhimurium, Strain/Indicator: TA98, Species: None, Method: Standard plate)?
**A.** The mutagenic call was “inactive; negative”.

**Q.** And the mutagenic call (Test System: Ames Salmonella typhimurium, Strain/Indicator: TA98, Species: Rat, Liver, S-9, Aroclor 1254 (10%), Method: Standard plate)?
**A.** The mutagenic call was “inactive; negative”.

**Q.** And the mutagenic call (Test System: Ames Salmonella typhimurium, Strain/Indicator: TA100, Species: None, Method: Standard plate)?
**A.** Its mutagenic call is “inactive; negative”.

**Q.** And the mutagenic call (Test System: Ames Salmonella typhimurium, Strain/Indicator: TA100, Species: Rat, Liver, S-9, Aroclor 1254 (10%), Method: Standard plate)?
**A.** Its mutagenic call is “inactive; negative”.

**Q.** And the mutagenic call (Test System: Ames Salmonella typhimurium, Strain/Indicator: TA1535, Species: None, Method: Standard plate)?
**A.** The mutagenic call was “inactive; negative”.

**Q.** And the mutagenic call (Test System: Ames Salmonella typhimurium, Strain/Indicator: TA1535, Species: Rat, Liver, S-9, Aroclor 1254 (10%), Method: Standard plate)?
**A.** Its mutagenic call is “inactive; negative”.

**Q.** What about the mutagenic call (Test System: Ames Salmonella typhimurium, Strain/Indicator: TA1537, Species: None, Method: Standard plate) of the same compound?
**A.** The mutagenic call was “inactive; negative”.

**Q.** And the mutagenic call (Test System: Ames Salmonella typhimurium, Strain/Indicator: TA1537, Species: Rat, Liver, S-9, Aroclor 1254 (10%), Method: Standard plate)?
**A.** The mutagenic call was “inactive; negative”.

**Q.** What about the mutagenic call (Test System: E. coli, Strain/Indicator: WP2 uvrA, Metabolic Activation: None, Method: Standard plate) of the same compound?
**A.** The mutagenic call was “inactive; negative”.

**Q.** And the mutagenic call (Test System: E. coli, Strain/Indicator: WP2 uvrA, Metabolic Activation: Rat, Liver, S-9, Aroclor 1254 (10%), Method: Standard plate)?
**A.** Its mutagenic call is “inactive; negative”.

**Q.** What about the mutagenic call (Test System: E.COLI, Strain/Indicator: WP2UVRA/PKM101, Metabolic Activation: NONE, Method: PREINCUBATION) of the same compound?
**A.** Its mutagenic call is “inactive; negative”.

**Q.** What about the mutagenic call (Test System: E.COLI, Strain/Indicator: WP2UVRA/PKM101, Metabolic Activation: RAT LIVER S-9, PHENOBARBITAL AND BETA-NAPHTHOFLAVONE, Method: PREINCUBATION) of the same compound?
**A.** The mutagenic call was “inactive; negative”.

**Q.** `C=CCCCCC1CO1` (configuration not stated) was tested. Which mutagenic call [3] did it give?
**A.** Its mutagenic call is “inactive; negative”.

**Q.** And the mutagenic call (Test System: AMES SALMONELLA TYPHIMURIUM, Strain/Indicator: TA1535, Metabolic Activation: NONE, Method: STANDARD PLATE)?
**A.** The mutagenic call was “active; positive”.

**Q.** Which mutagenic call (Test System: AMES SALMONELLA TYPHIMURIUM, Strain/Indicator: TA100, Metabolic Activation: RAT, LIVER, MICROSOMES, Method: PREINCUBATION) does the source give for `ClC[C@H](Br)CBr` here?
**A.** The mutagenic call was “active; positive”.

**Q.** What does the source list for `Cn1cnc2c3cccnc3ccc21`?
**A.** mutagenic call [1]: active; positive; mutagenic call (Test System: AMES SALMONELLA TYPHIMURIUM, Strain/Indicator: TA98, Metabolic Activation: RAT, LIVER, S-9, AROCLOR 1254, Method: PREINCUBATION): active; positive; mutagenic call [2]: active; positive; mutagenic call (Test System: AMES SALMONELLA TYPHIMURIUM, Strain/Indicator: TA100, Metabolic Activation: RAT, LIVER, S-9, AROCLOR 1254, Method: PREINCUBATION): active; positive

**Q.** With `CN(C)N=Nc1ccc(C(=O)O)cc1` as the compound, how does the mutagenic call (Test System: AMES SALMONELLA TYPHIMURIUM, Strain/Indicator: G46, Metabolic Activation: NONE, Method: STANDARD PLATE) read?
**A.** The mutagenic call was “inactive; negative”.

**Q.** And the mutagenic call (Test System: AMES SALMONELLA TYPHIMURIUM, Strain/Indicator: G46, Metabolic Activation: RAT, LIVER, S-9, PHENOBARBITAL, Method: STANDARD PLATE)?
**A.** Its mutagenic call is “active; positive”.

**Q.** What about the mutagenic call (Test System: AMES SALMONELLA TYPHIMURIUM, Strain/Indicator: TA92, Metabolic Activation: NONE, Method: STANDARD PLATE) of the same compound?
**A.** The mutagenic call was “active; positive”.

**Q.** And the mutagenic call (Test System: AMES SALMONELLA TYPHIMURIUM, Strain/Indicator: TA92, Metabolic Activation: RAT, LIVER, S-9, PHENOBARBITAL, Method: PREINCUBATION)?
**A.** Its mutagenic call is “inactive; negative”.

**Q.** What about the mutagenic call (Test System: AMES SALMONELLA TYPHIMURIUM, Strain/Indicator: TA92, Metabolic Activation: RAT, LIVER, S-9, PHENOBARBITAL, Method: STANDARD PLATE) of the same compound?
**A.** The mutagenic call was “inactive; negative”.

**Q.** What about the mutagenic call [3] of the same compound?
**A.** Its mutagenic call is “inactive; negative”.

**Q.** What about the mutagenic call (Test System: AMES SALMONELLA TYPHIMURIUM, Strain/Indicator: TA100, Metabolic Activation: RAT, LIVER, S-9, PHENOBARBITAL, Method: STANDARD PLATE) of the same compound?
**A.** Its mutagenic call is “inactive; negative”.

**Q.** What about the mutagenic call (Test System: E. COLI, Strain/Indicator: TM6, Metabolic Activation: NONE, Method: STANDARD PLATE) of the same compound?
**A.** The mutagenic call was “active; positive”.

**Q.** What about the mutagenic call (Test System: E. COLI, Strain/Indicator: TM6, Metabolic Activation: RAT, LIVER, S-9 PHENOBARBITAL, Method: STANDARD PLATE) of the same compound?
**A.** Its mutagenic call is “active; positive”.

**Q.** What about the mutagenic call (Test System: E. COLI, Strain/Indicator: TM9, Metabolic Activation: NONE, Method: STANDARD PLATE) of the same compound?
**A.** Its mutagenic call is “active; positive”.

**Q.** What about the mutagenic call (Test System: E. COLI, Strain/Indicator: TM9, Metabolic Activation: RAT, LIVER, S-9 PHENOBARBITAL, Method: STANDARD PLATE) of the same compound?
**A.** The mutagenic call was “active; positive”.

**Q.** What about the mutagenic call (Test System: E. COLI, Strain/Indicator: WP2, Metabolic Activation: NONE, Method: STANDARD PLATE) of the same compound?
**A.** Its mutagenic call is “active; positive”.

**Q.** And the mutagenic call (Test System: E. COLI, Strain/Indicator: WP2, Metabolic Activation: RAT, LIVER, S-9 PHENOBARBITAL, Method: STANDARD PLATE)?
**A.** Its mutagenic call is “active; positive”.

**Q.** What about the mutagenic call (Test System: E. COLI, Strain/Indicator: WP2 UVRA, Metabolic Activation: NONE, Method: STANDARD PLATE) of the same compound?
**A.** Its mutagenic call is “active; positive”.

**Q.** And the mutagenic call (Test System: E. COLI, Strain/Indicator: WP2 UVRA, Metabolic Activation: RAT, LIVER, S-9 PHENOBARBITAL, Method: STANDARD PLATE)?
**A.** The mutagenic call was “active; positive”.

**Q.** `COC(=O)c1oc(NO)c(-c2ccccc2)c1-c1ccccc1` was tested. Which mutagenic call [1] did it give?
**A.** The mutagenic call was “inactive; negative”.

**Q.** And the mutagenic call (Test System: AMES SALMONELLA TYPHIMURIUM, Strain/Indicator: TA98, Metabolic Activation: RAT, LIVER, S-9, AROCLOR, Method: PREINCUBATION)?
**A.** The mutagenic call was “inactive; negative”.

**Q.** And the mutagenic call [2]?
**A.** The mutagenic call was “inactive; negative”.

**Q.** And the mutagenic call (Test System: AMES SALMONELLA TYPHIMURIUM, Strain/Indicator: TA100, Metabolic Activation: RAT, LIVER, S-9, AROCLOR, Method: PREINCUBATION)?
**A.** The mutagenic call was “inactive; negative”.

**Q.** Which mutagenic call (Test System: CHINESE HAMSTER V-79, Strain/Indicator: V-79/8-AZAGUANINE, Metabolic Activation: NONE, Method: STANDARD PLATE) does the source give for `Cc1c2ccccc2cc2c3c(ccc12)[C@@H](O)[C@H](O)C=C3` here?
**A.** The mutagenic call was “active; positive”.
